Assay results as given in patent US20220323532A1, “COMPOSITIONS COMPRISING PLANT-DERIVED EXOSOME-LIKE NANOVESICLES OR EXOSOMES AND METHODS OF USE THEREOF” (priority 2021, published 2022).
Where two headings read alike, the source gives them in different places.

Tests used:
[1] = test system: skin of human subjects; conditions: repeat insult patch test; positive control
From the text: To determine the irritation and sensitization (contact allergy) potential of a test material (high growth serum comprising ashwagandha exosomes/ELNs 1×10^9 or 1×10^10 after repeated application to the skin of human subjects. […]
This procedure was repeated until a series of nine (9) consecutive, 24-hour exposures had been made three (3) times a week for three (3) consecutive weeks. Prior to each reapplication, the test sites evaluated by trained laboratory personnel. […] Test sites were evaluated by trained laboratory personnel 48 and 96 hours after application. In the event of an adverse reaction, the area of erythema and edema were measured. […] Subjects were instructed to report any delayed reactions that might occur after the final reading. […]

[2] = test system: skin of human subjects; experiment: Primary skin irritation evaluation, single 48 hour patch; assay type: in vivo; conditions: single application, patch 48 hours; 55 subjects; positive control
Experimental: Patches remain in place for 48 hours. […] Trained skin grading laboratory personnel removed the patch and evaluated the test sites.
Whenever feasible, the same individual does the scoring of all the subjects throughout the study and is blinded to the treatment assignments and any previous scores. • 0 no reaction (negative) • 1 erythema throughout at least ¾ of patch area • 2 erythema and induration throughout at least ¾ of patch area • 3 erythema, induration and vesicles • 4 erythema, induration and bullae • D Site discontinued • Dc Subject discontinued • DcI Subject discontinued per Investigator

With `CCCCCCCCCCCCOS(=O)(=O)[O-].[Na+]` [2.0% Sodium Lauryl Sulfate Solution, Sodium Lauryl Sulfate] the “subjects with a Grade 1 reaction” value [1] was 6 subjects and the “subjects with a Grade 1 reaction” value [2] was 6 subjects.
